What was measured:
Type in all cases: physicochemical, human
[1] = GC/MS of serum sample: time from centrifugation to isolation (Table H); parameters: key to Rate of increase or decrease / Rate of increase or decrease (first value, increase): detection intensity relative to 1 at 30 min centrifugation-to-isolation; conditions: for Rate of increase or decrease: detection intensity relative to 1 at 30 minutes; for Increase or decrease: detection intensity
Outline: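 Values are GC/MS (EI, MRM) detection intensities of methoxymated/trimethylsilylated serum, normalised to 1 for the 30-min sample. Serum was isolated 30 min, 1 h or 6 h after room-temperature centrifugation (3500 rpm, 5 min) of blood.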

[2] = GC/MS of serum sample: number of times of freezing and thawing (Table I); parameters: key to Rate of increase or decrease / Rate of increase or decrease (first value, increase): detection intensity relative to 2 freeze-thaw cycles = 1; conditions: serum, GC/MS; for Rate of increase or decrease: detection intensity relative to 1 at 2 times, freezing and thawing 4 times; for Increase or decrease: detection intensity, freezing and thawing 4 times vs 2 times
Outline: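 Detection intensities are ratios to the value after two freeze–thaw cycles, which is set as 1, compared against 4, 6 and 10 cycles. Analysis used methoxymation and trimethylsilylation derivatization, then GC/MS with EI ionization and multiple reaction monitoring on a BPX5 column. Serum came from blood held at room temperature and spun at 3500 rpm for 5 min.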

[3] = GC/MS of serum sample: time from blood collection to centrifugation (Table G); conditions: blood collection to centrifugation; for Rate of increase or decrease: detection intensity relative to 1 at 15 minutes, after 4 hours; for Increase or decrease: detection intensity, after 4 hours vs 15 minutes
Outline: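 Values express detection intensity as a ratio to the sample centrifuged 15 minutes after blood collection (taken as 1). Serum was derivatized by methoxymation and trimethylsilylation, then analysed by electron-ionization GC/MS using multiple reaction monitoring on a BPX5 column ramped from 60 to 330° C.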

[4] = GC/MS of blood plasma sample: number of times of freezing and thawing (Table C); conditions: for Increase or decrease: detection intensity, freezing and thawing 6 times vs 2 times; for Rate of increase or decrease: detection intensity relative to 1 at 2 times
Experimental: (§1) At room temperature, 5 mL of blood from a healthy subject was taken into a blood-collecting vessel containing EDTA, and the blood-collecting vessel was inverted for mixing, then cooled, and allowed to stand at 4° C. Here, in order to investigate how the detection intensity of molecules contained in the sample was affected in a case where the time to cooling was set to 5 minutes or more as compared to that in a case where the time to cooling was set to 1 minute or less, preparations were performed under both the former condition and the latter condition. After standing, the blood sample was subjected to centrifugation under a condition of 4° C., 3000 rpm, and 15 minutes. […] After centrifugation, the blood-collecting vessel was left to stand at room temperature for 30 minutes, and the blood plasma was isolated during this 30 minutes. The obtained blood plasma sample was frozen and stored. Here, in order to investigate how the detection intensity of molecules contained in the sample was affected in cases where freezing and thawing was performed 4 times, 6 times, and 10 times after freezing as compared to that in a case where freezing and thawing was performed 2 times after freezing, freezing and thawing was performed under the respective conditions of 2, 4, 6, and 10 times.
(§2) Frozen blood plasma samples and serum samples were subjected to GC/MS or LC/MS. In GC/MS, the blood plasma samples and serum samples were subjected to methoxymation and trimethylsilylation and then introduced to GC-MS.
(§3) GC/MS was conducted using GCMS·TQ8040 (Shimadzu Corporation) that was a GC·MS equipped with AOC·20i (Shimadzu Corporation) as an autosampler.
(§4) Column: BPX5 (inner diameter of 0.25 mm, length of 30 m, and film thickness of 0.25 μm) (SGE)
(§5) Column temperature: maintained at 60° C. for 2 minutes, then raised at 15° C./min, and maintained at 330° C. for 3 minutes.
(§6) Inlet temperature: 250° C.
(§7) Carrier gas control mode: constant linear velocity of 39.0 cm/sec
(§8) Sample introduction method: split (split ratio of 30:1) Injection volume: 1 μL
(§9) Ionization method: electron ionization
(§10) Ionization current: 60 μA
(§11) Interface temperature: 280° C.
(§12) Ion source temperature: 200° C.
(§13) Mode: multiple reaction monitoring (MRM)
The rate of increase or decrease in Table C is the value of detection intensity relative to 1 that is the detection intensity in a case where the number of times of freezing and thawing is set to 2 times.

[5] = GC/MS of blood plasma sample: time from blood collection to cooling of blood (Table B); parameters: key to Rate of increase or decrease / Rate of increase or decrease (first value, increase): detection intensity relative to 1 at cooling time ≤1 min; conditions: for Increase or decrease: detection intensity, blood collection to cooling 5 minutes or more vs 1 minute or less; for Rate of increase or decrease: detection intensity relative to 1 at 1 minute or less, blood collection to cooling 5 minutes
Experimental: as §1, §2, §3, §4, §5, §6, §7, §8, §9, §10, §11, §12, §13
Table B presents compounds of which the detection intensity increased or decreased by 30% or more in a case where the time from blood collection to cooling of blood, when a blood plasma sample was analyzed by GC/MS, was set to 5 minutes or more as compared to that in a case where the time was set to 1 minute or less. The rate of increase or decrease in Table B is the value of detection intensity relative to 1 that is the detection intensity in a case where the time from blood collection to cooling is set to 1 minute or less.

[6] = GC/MS of blood plasma sample: time from blood collection to centrifugation (Table A); conditions: for Increase or decrease: detection intensity; for Rate of increase or decrease (second value, decrease) / Rate of increase or decrease (first value, increase): different from individual to individual, relative to 1 at 15 minutes, collection to centrifugation, after 4 hours; for Rate of increase or decrease (second value, decrease): individuals with decrease; for Rate of increase or decrease (first value, increase): individuals with increase
Experimental: as §1, §2, §3, §4, §5, §6, §7, §8, §9, §10, §11, §12, §13
The rate of increase or decrease in Table A is the value of detection intensity relative to 1 that is the detection intensity in a case where the time from blood collection to centrifugation is set to 15 minutes.

[7] = blood collection to centrifugation, after 4 hours vs 15 minutes

SMILES	Rate of increase or decrease [2]	Increase or decrease [2]	Increase or decrease [4]	Increase or decrease [5]	Rate of increase or decrease [5]	Increase or decrease [6, 7]	Rate of increase or decrease (second value, decrease) [6]	Rate of increase or decrease (first value, increase) [6]	Rate of increase or decrease [3]	Increase or decrease [3]	Increase or decrease ([1]; after 6 hours vs 30 minutes)	Rate of increase or decrease ([4]; freezing and thawing 6 times)	further results
O=C[C@H](O)[C@H](O)[C@H](O)CO [Ribose]	1.68	Increase	Different from individual	Increase					0.41	Decrease			Rate of increase or decrease ([1]; after 1 hour): 1.76; Increase or decrease ([1]; after 1 hour vs 30 minutes): Increase; Rate of increase or decrease (second value, decrease) ([4]; different from individual to individual, individuals with decrease, relative to 1 at 2 times, freezing and thawing 6 times): 0.70; Rate of increase or decrease (first value, increase) ([4]; different from individual to individual, individuals with increase, relative to 1 at 2 times, freezing and thawing 6 times): 1.39
NCCS(=O)O [Hypotaurine]				Increase	1.43				1.69	Increase			Rate of increase or decrease ([6]; detection intensity relative to 1 at 15 minutes, blood collection to centrifugation, after 8 hours): 1.36; Increase or decrease ([6]; blood collection to centrifugation, after 8 hours vs 15 minutes): Increase
CC(=O)NCCCC[C@H](N)C(=O)O [N6-acetyllysine]	0.67	Decrease	Decrease	Decrease	0.61				1.55	Increase	Different from individual	0.57	Rate of increase or decrease (second value, decrease) ([1]; different from individual to individual, individuals with decrease, relative to 1 at 30 minutes, after 6 hours): 0.58; Rate of increase or decrease (first value, increase) ([1]; different from individual to individual, individuals with increase, relative to 1 at 30 minutes, after 6 hours): 1.71

Now from value to compound, other results behind:

Rate of increase or decrease [2]	Increase or decrease [2]	Increase or decrease [4]	Increase or decrease [5]	Rate of increase or decrease [5]	Increase or decrease [6, 7]	Rate of increase or decrease (second value, decrease) [6]	Rate of increase or decrease (first value, increase) [6]	SMILES	Rate of increase or decrease [3]	Increase or decrease [3]	Increase or decrease ([1]; after 6 hours vs 30 minutes)	Rate of increase or decrease ([4]; freezing and thawing 6 times)	further results
			Decrease	0.67	Different from individual	0.64	1.48	CCC(=O)C(=O)O [2-Ketobutyric acid]					
0.61	Decrease		Increase	1.58	Different from individual	0.32	3.80	O=C(O)C(=O)O [Oxalic acid]	1.31	Increase	Increase		Rate of increase or decrease ([1]; after 6 hours): 1.67
		Decrease	Increase	1.31				CC(C)CC(O)C(=O)O (centres unmarked) [2-Hydroxyisocaproic acid]				0.66	

Reference: US20220146526A1, “METHOD FOR EVALUATING SAMPLE, ANALYSIS METHOD, METHOD FOR DETECTING DEGRADED SAMPLE, MARKER FOR DETECTING DEGRADED BLOOD PLASMA SAMPLE, AND MARKER FOR DETECTING DEGRADED SERUM SAMPLE” (SHIMADZU CORPORATION, priority 2019, published 2022)
